Reference: patent US20240368078A1, “ARYL HETEROCYCLIC COMPOUNDS AS Kv1.3 POTASSIUM SHAKER CHANNEL BLOCKERS” (D.E. SHAW RESEARCH, LLC, priority 2021, published 2024)

Columns and labels:
Kv1.3 potassium channel = Kv1.3 potassium channel (Homo sapiens (Human), UniProt P22001); assay: Kv1.3 potassium channel blocker activity, automated whole-cell patch clamp in CHO-K1 cells stably expressing Kv1.3; type: cell-based; settings: Patchliner patch clamp
Procedure: Example 21. Evaluation of Kv1.3 Potassium Channel Blocker Activities
This assay is used to evaluate the disclosed compounds' activities as Kv1.3 potassium channel blockers.
CHO-K1 cells stably expressing Kv1.3 were grown in DMEM containing 10% heat-inactivated FBS, 1 mM sodium pyruvate, 2 mM L-glutamine, and G418 (500 μg/ml). Cells were grown in culture flasks at 37° C. in a 5% C02-humidified incubator.
(§1) The cells were bathed in an extracellular solution containing 140 mM NaCl, 4 mM KCl, 2 mM CaCl2), 1 mM MgCl2, 5 mM glucose, 10 mM HEPES; pH adjusted to 7.4 with NaOH; 295-305 mOsm. The internal solution contained 50 mM KCl, 10 mM NaCl, 60 mM KF, 20 mM EGTA, 10 mM HEPES; pH adjusted to 7.2 with KOH; 285 mOsm. All compounds were dissolved in DMSO at 30 mM. Compound stock solutions were freshly diluted with external solution to concentrations of 30 nM, 100 nM, 300 nM, 1 μM, 3 μM, 10 μM, 30 μM and 100 μM. The highest content of DMSO (0.3%) was present in 100 μM.
The currents were evoked by applying 100 ms depolarizing pulses from −90 mV (holding potential) to +40 mV were applied with 0.1 Hz frequency. Control (compound-free) and compound pulse trains for each compound concentration applied contained 20 pulses. 10-second breaks were used between pulse trains (see Table A below).
Whole-cell current recordings and compound application were enabled by means of an automated patch clamp platform Patchliner (Nanion Technologies GmbH). EPC 10 patch clamp amplifier (HEKA Elektronik Dr. Schulze GmbH) along with Patchmaster software (HEKA Elektronik Dr. Schulze GmbH) was used for data acquisition. Data were sampled at 10 kHz without filtering. Passive leak currents were subtracted online using a P/4 procedure (HEKA Elektronik Dr. Schulze GmbH). Increasing compound concentrations were applied consecutively to the same cell without washouts in between. Total compound incubation time before the next pulse train was not longer than 10 seconds. Peak current inhibition was observed during compound equilibration.
(§2) AUC and peak values were obtained with Patchmaster (HEKA Elektronik Dr. Schulze GmbH). To determine IC50, the last single pulse in the pulse train corresponding to a given compound concentration was used. Obtained AUC and peak values in the presence of compound were normalized to control values in the absence of compound. Using Origin (OridinLab), IC50 was derived from data fit to Hill equation: Icompound/Icontrol=(100-A)/(1+([compound]/IC50)nH)+A, where IC50 value is the concentration at which current inhibition is half-maximal, [compound] is the applied compound concentration, A is the fraction of current that is not blocked and nH is the Hill coefficient.

hERG channel = hERG channel (Homo sapiens (Human), UniProt Q12809); assay: hERG electrophysiology, automated whole-cell patch clamp in CHO-K1 cells stably expressing hERG; type: cell-based; settings: Patchliner patch clamp
Procedure: Example 22. Evaluation of hERG Activities
This assay is used to evaluate the disclosed compounds's inhibition activities against the hERG channel.
This assay is used to evaluate the disclosed compounds' inhibition activities against the hERG channel.
CHO-K1 cells stably expressing hERG were grown in Ham's F-12 Medium with glutamine containing 10% heat-inactivated FBS, 1% penicillin/streptomycin, hygromycin (100 μg/ml) and G418 (100 μg/ml). Cells were grown in culture flasks at 37° C. in a 5% CO2— humidified incubator.
as §1, with “Glucose,” for “glucose,”
The voltage protocol (see Table B) was designed to simulate voltage changes during a cardiac action potential with a 300 ms depolarization to +20 mV (analogous to the plateau phase of the cardiac action potential), a repolarization for 300 ms to −50 mV (inducing a tail current) and a final step to the holding potential of −80 mV. The pulse frequency was 0.3 Hz. Control (compound-free) and compound pulse trains for each compound concentration applied contained 70 pulses.
Whole-cell current recordings and compound application were enabled by means of an automated patch clamp platform Patchliner (Nanion). EPC 10 patch clamp amplifier (HEKA) along with Patchmaster software (HEKA Elektronik Dr. Schulze GmbH) was used for data acquisition. Data were sampled at 10 kHz without filtering. Increasing compound concentrations were applied consecutively to the same cell without washouts in between.
as §2, with “PEAK” for “peak”, “IC50” for “IC50,”, “Icompound/Icontrol=(100−A)/(1+([compound]/IC50)nH)+A,” for “Icompound/Icontrol=(100-A)/(1+([compound]/IC50)nH)+A,”, “IC50” for “IC50 value”

Chain of hERG channel (Q12809 whole entry): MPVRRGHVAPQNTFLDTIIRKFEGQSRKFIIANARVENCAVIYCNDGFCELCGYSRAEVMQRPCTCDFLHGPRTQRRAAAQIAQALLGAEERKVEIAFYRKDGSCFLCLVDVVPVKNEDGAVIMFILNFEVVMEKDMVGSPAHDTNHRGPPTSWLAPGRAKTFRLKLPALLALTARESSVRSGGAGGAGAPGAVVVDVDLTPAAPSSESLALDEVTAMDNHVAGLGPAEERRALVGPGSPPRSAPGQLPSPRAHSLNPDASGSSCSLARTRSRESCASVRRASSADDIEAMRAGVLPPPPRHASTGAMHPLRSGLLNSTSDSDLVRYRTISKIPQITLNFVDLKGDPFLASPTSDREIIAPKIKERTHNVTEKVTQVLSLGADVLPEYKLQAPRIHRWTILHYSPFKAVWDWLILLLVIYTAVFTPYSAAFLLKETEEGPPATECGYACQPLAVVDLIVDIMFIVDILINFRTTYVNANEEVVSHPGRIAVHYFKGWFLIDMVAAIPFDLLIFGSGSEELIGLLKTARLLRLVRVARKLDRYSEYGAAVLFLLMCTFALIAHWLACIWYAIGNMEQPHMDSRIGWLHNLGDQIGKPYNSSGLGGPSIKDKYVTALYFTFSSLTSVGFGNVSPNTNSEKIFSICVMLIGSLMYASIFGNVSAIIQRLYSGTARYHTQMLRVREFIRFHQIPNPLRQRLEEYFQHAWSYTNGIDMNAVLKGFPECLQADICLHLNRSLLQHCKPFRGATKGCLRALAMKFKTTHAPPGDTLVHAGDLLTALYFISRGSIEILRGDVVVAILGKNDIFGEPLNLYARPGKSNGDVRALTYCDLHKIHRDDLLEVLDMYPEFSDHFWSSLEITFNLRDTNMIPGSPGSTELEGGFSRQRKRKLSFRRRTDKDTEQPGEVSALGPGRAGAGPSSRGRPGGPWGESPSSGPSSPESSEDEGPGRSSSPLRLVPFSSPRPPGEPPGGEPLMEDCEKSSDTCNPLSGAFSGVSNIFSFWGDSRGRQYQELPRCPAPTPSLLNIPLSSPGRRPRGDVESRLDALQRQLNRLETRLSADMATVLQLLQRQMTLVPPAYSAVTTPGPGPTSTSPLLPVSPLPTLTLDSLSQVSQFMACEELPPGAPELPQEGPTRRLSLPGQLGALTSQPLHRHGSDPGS
Chain of Kv1.3 potassium channel (P22001 whole entry): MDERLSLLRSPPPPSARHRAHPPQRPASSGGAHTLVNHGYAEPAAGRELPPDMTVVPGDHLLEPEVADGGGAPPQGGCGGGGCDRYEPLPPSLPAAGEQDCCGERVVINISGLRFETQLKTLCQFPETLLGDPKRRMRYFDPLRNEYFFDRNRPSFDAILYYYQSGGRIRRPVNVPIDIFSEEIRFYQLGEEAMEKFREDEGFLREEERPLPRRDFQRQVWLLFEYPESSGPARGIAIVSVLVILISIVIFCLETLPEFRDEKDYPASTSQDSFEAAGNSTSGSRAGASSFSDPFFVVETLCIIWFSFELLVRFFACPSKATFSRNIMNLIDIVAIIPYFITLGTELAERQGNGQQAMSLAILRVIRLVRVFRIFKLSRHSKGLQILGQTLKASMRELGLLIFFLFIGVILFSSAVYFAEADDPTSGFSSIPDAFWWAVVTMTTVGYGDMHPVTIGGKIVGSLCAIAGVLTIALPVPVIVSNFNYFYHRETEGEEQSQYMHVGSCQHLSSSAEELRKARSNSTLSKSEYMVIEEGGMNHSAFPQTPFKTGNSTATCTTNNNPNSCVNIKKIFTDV

IC50 (Kv1.3 potassium channel) [nM] | SMILES | IC50 (hERG channel) [nM]
< 1000 | C[C@@H](C(N)=O)[C@H]1CN[C@@H](c2c(O)ccc(Cl)c2Cl)C1 (single isomer, unassigned) [Compound 44] | > 100000
< 100 | C[C@H](C(N)=O)[C@H]1CN[C@@H](c2c(O)ccc(Cl)c2Cl)C1 (single isomer, unassigned) [Compound 45] | > 100000
< 1000 | CC[C@@H](C(N)=O)[C@H]1CN[C@@H](c2c(O)ccc(Cl)c2Cl)C1 (single isomer, unassigned) [Compound 46] | > 100000
< 100 | CC[C@H](C(N)=O)[C@H]1CN[C@@H](c2c(O)ccc(Cl)c2Cl)C1 (single isomer, unassigned) [Compound 47] | 100000
< 1000 | CC[C@H](C(N)=O)[C@@H]1CN[C@@H](c2c(O)ccc(Cl)c2Cl)C1 (single isomer, unassigned) [Compound 72] | –
< 1000 | CC[C@@H](C(N)=O)[C@@H]1CN[C@@H](c2c(O)ccc(Cl)c2Cl)C1 (single isomer, unassigned) [Compound 73] | –
< 1000 | COC[C@H](C(N)=O)[C@H]1CN[C@@H](c2c(O)ccc(Cl)c2Cl)C1 (single isomer, unassigned) [Compound 74] | > 100000
< 1000 | COC[C@@H](C(N)=O)[C@H]1CN[C@@H](c2c(O)ccc(Cl)c2Cl)C1 (single isomer, unassigned) [Compound 75] | > 100000
< 1000 | NC(=O)[C@@H](CO)[C@H]1CN[C@@H](c2c(O)ccc(Cl)c2Cl)C1 (single isomer, unassigned) [Compound 76] | > 100000
< 100 | NC(=O)C(CO)[C@H]1CN[C@@H](c2c(O)ccc(Cl)c2Cl)C1 (single isomer, unassigned) [Compound 77] | > 100000
< 100 | NC(=O)[C@H](C1CC1)[C@H]1CN[C@@H](c2c(O)ccc(Cl)c2Cl)C1 (single isomer, unassigned) [Compound 78] | –
< 1000 | NC(=O)[C@@H](C1CC1)[C@H]1CN[C@@H](c2c(O)ccc(Cl)c2Cl)C1 (single isomer, unassigned) [Compound 79] | –
< 1000 | NC(=O)C[C@H]1CN[C@@H](c2c(O)ccc(Cl)c2Cl)C1 [Compound 31, 2-[(3S,5R)-5-(2,3-dichloro-6-hydroxyphenyl)pyrrolidin-3-yl]acetamide] | > 100000
< 1000 | NC(=O)C[C@@H]1CN[C@@H](c2c(O)ccc(Cl)c2Cl)C1 [Compound 32, 2-[(3R,5R)-5-(2,3-dichloro-6-hydroxyphenyl)pyrrolidin-3-yl]acetamide] | –
< 100 | O=C(CC1CN[C@@H](c2c(O)ccc(Cl)c2Cl)C1)N1CC(O)(CO)C1 (stereo partly drawn) [Compound 33, 2-((5R)-5-(2,3-dichloro-6-hydroxyphenyl)pyrrolidin-3-yl)-1-(3-hydroxy-3-(hydroxymethyl)azetidin-1-yl)ethan-1-one] | > 100000
< 100 | O=C(CC1CN[C@@H](c2c(O)ccc(Cl)c2Cl)C1)NCCO (stereo partly drawn) [Compound 34, 2-((5R)-5-(2,3-dichloro-6-hydroxyphenyl)pyrrolidin-3-yl)-N-(2-hydroxyethyl)acetamide] | > 100000
< 100 | CN(CCO)C(=O)CC1CN[C@@H](c2c(O)ccc(Cl)c2Cl)C1 (stereo partly drawn) [Compound 35, 2-((5R)-5-(2,3-dichloro-6-hydroxyphenyl)pyrrolidin-3-yl)-N-(2-hydroxyethyl)-N-methylacetamide] | > 30000
< 100 | CNC(=O)CC1CN[C@@H](c2c(O)ccc(Cl)c2Cl)C1 (stereo partly drawn) [Compound 36, 2-((5R)-5-(2,3-dichloro-6-hydroxyphenyl)pyrrolidin-3-yl)-N-methylacetamide] | > 30000
< 1000 | CN(C)C(=O)CC1CN[C@@H](c2c(O)ccc(Cl)c2Cl)C1 (stereo partly drawn) [Compound 37, 2-((5R)-5-(2,3-dichloro-6-hdyroxyphenyl)pyrrolidin-3-yl)-N,N-dimethylacetamide] | > 30000
< 1000 | NC(=O)CC1CN[C@@H](c2cc(Cl)c(Cl)cc2O)C1 (stereo partly drawn) [Compound 38, 2-((5R)-5-(4,5-dichloro-2-hydroxyphenyl)pyrrolidin-3-yl)acetamide] | > 10000
< 1000 | C[C@@]1(CC(N)=O)CN[C@@H](c2c(O)ccc(Cl)c2Cl)C1 [Compound 50, 2-[5R-(2,3-dichloro-6-hydroxyphenyl)-3-methylpyrrolidin-3-yl]acetamide] | –
< 1000 | CC(C)(C(N)=O)[C@@H]1CN[C@@H](c2c(O)ccc(Cl)c2Cl)C1 [Compound 51, 2-[(3R,5R)-5-(2,3-dichloro-6-hydroxyphenyl)pyrrolidin-3-yl]-2-methylpropanamide] | –
< 1000 | O=C(C[C@H]1CN[C@@H](c2c(O)ccc(Cl)c2Cl)C1)N1CCC(O)CC1 [Compound 57, 2-((3S,5R)-5-(2,3-dichloro-6-hydroxyphenyl)pyrrolidin-3-yl)-1-(4-hydroxypiperidin-1-yl)ethan-1-one] | –
< 1000 | O=C(C[C@H]1CN[C@@H](c2c(O)ccc(Cl)c2Cl)C1)N1CCC[C@H](O)C1 [Compound 59, 2-((3S,5R)-5-(2,3-dichloro-6-hydroxyphenyl)pyrrolidin-3-yl)-1-((S)-3-hydroxypiperidin-1-yl)ethan-1-one] | –
< 1000 | O=C(C[C@H]1CN[C@@H](c2c(O)ccc(Cl)c2Cl)C1)N1CC(CO)C1 [Compound 60, 2-((3S,5R)-5-(2,3-dichloro-6-hydroxyphenyl)pyrrolidin-3-yl)-1-(3-(hydroxymethyl)azetidin-1-yl)ethan-1-one] | –
< 1000 | C[C@@H](CO)NC(=O)C[C@H]1CN[C@@H](c2c(O)ccc(Cl)c2Cl)C1 [Compound 62, 2-((3S,5R)-5-(2,3-dichloro-6-hydroxyphenyl)pyrrolidin-3-yl)-N-((S)-1-hydroxypropan-2-yl)acetamide] | –
< 1000 | CC1(CO)CN(C(=O)C[C@H]2CN[C@@H](c3c(O)ccc(Cl)c3Cl)C2)C1 [Compound 69, 2-((3S,5R)-5-(2,3-dichloro-6-hydroxyphenyl)pyrrolidin-3-yl)-1-(3-(hydroxymethyl)-3-methylazetidin-1-yl)ethan-1-one] | –
< 1000 | O=C(C[C@H]1CN[C@@H](c2c(O)ccc(Cl)c2Cl)C1)N1CC(CO)(CO)C1 [Compound 70, 1-(3,3-bis(hydroxymethyl)azetidin-1-yl)-2-((3S,5R)-5-(2,3-dichloro-6-hydroxyphenyl)pyrrolidin-3-yl)ethan-1-one] | –
